Key:
[1] = test system: MCF7; assay: Anticancer activity against human MCF7 cells after 24 hrs by MTT assay; type: functional, cell-based; settings: MCF7, 24 h
[2] = test system: MDA-MB-231; assay: Anticancer activity against human MDA-MB-231 cells after 24 hrs by MTT assay; type: functional, cell-based; settings: MDA-MB-231, 24 h

Cc1ccc(S(=O)(=O)N2Cc3ccccc3OC[C@@H]2Cc2ccc(O)cc2)cc1
IC50 [1]: 20 µM | IC50 [2]: 30 µM

Reference: ChEMBL document CHEMBL4033627, “Quest for steroidomimetics: Amino acids derived steroidal and nonsteroidal architectures” (Eur J Med Chem, 2017)
